EC50, Emax and inhibition data for ten molecules are collected here from US10206908B2, “3-(1H-pyrrolo[3,2-C]pyridin-2-YL)-1H-pyrazolo[3,4-C]pyridines and therapeutic uses thereof” (Samumed, LLC, priority 2015, dated 2019).

Holding throughout (type): cell-based
For one experiment, the system named is IL-6 (THP-1 cells). Nature of the experiment: IL-6 inhibition in LPS-stimulated THP-1 monocytes (HTRF). The settings on record: Homo sapiens; for EC50: IL-6, THP-1 cells, LPS 500 ng/mL, 22 hours; for inhibition at 10 µM: THP-1, read-out: percent inhibition at 10 μM. The procedure:
Compound Screening: THP-1 cells were cultured in basal media with 1% FBS for 24 hours before the start of the assay. […] THP-1 cells were plated at 5000 cells/well in the 384-well plates and incubated at 37° C. for 2 h. 500 ng/mL of LPS was added after 2 hours and cells were incubated for another 22 hours at 37° C. Plates were spun in a centrifuge for 1 minute at […] and a mixture of anti-IL6 XL665, and anti-IL6 Cryptate diluted in reconstitution buffer (Cisbio Inc.) was added to each well. Following incubation for 3 hrs at room temperature, Homogeneous Time-Resolved Fluorescence (HTRF) was measured using the Envision (Perkin Elmer) at 665 nm and […]. The ratio of fluorescence at 665 nm to 620 nm was used as a readout for IL6 quantification. All samples were processed in duplicate. Readings were normalized to DMSO treated cells and normalized activities were utilized for EC50 calculations using the dose-response log (inhibitor) vs. response-variable slope (four parameters) nonlinear regression feature available in GraphPad Prism 5.0 (or Dotmatics).
On the technique in general: TR-FRET usually uses a lanthanide donor and a delayed reading to cut background.

Experiment [1] concerns primary human mesenchymal stem cells (hMSCs). Nature of the experiment: Induction of chondrogenesis in hMSCs (chondrogenic nodules, Rhodamine B/Nile Red). The note with it: 6 days; for EC50: concentration required to induce 50% levels of chondrogenesis vs TGF-β3, read-out: Conc (nM) of 50% TGF-β3 activity; for Emax: relative to TGF-β3 (10 ng/mL) positive control, read-out: Max. Activity as % TGF-β3 activity. From the text:
Representative compounds were screened using primary human mesenchymal stem cells (hMSCs) to determine their ability to induce chondrogenesis (process by which cartilage is developed).
Human Mesenchymal Stem Cell Culture: Primary human mesenchymal stem cells (hMSCs) were purchased from Lonza (Walkersville, Md.) and expanded in Mesenchymal Stem Cell Growth Media (Lonza). Cells between passage 3 and 6 were used for the experiments.
Number of nodules in each well was normalized to the average of 3 DMSO treated wells on the same plate using Excel (Microsoft Inc.). The normalized averages (fold change over DMSO) of 3 replicate wells for each compound concentration were calculated. Due to solubility limitations of some of the compounds, curve fitting was incomplete leading to inaccurate EC50 determinations.
Using TGF-β3 as a positive control, the concentration of representative compounds required to induce 50% levels of chondrogenesis is reported. In addition, the maximum activity of each compound and the respective dose that each compound reached maximum chondrogenesis activity is reported.

Experiment [2] relates to Wnt activity (Sp5-Luc reporter, SW480 colon carcinoma cells). Nature of the experiment: Screening assay for Wnt activity: Sp5-Luc reporter gene assay in SW480 colon carcinoma cells. The note with it: Homo sapiens; for EC50: Sp5-Luc reporter, SW480 cells, overnight incubation; for inhibition at 10 µM: SW480, read-out: percent inhibition at 10 μM. From the text:
The screening assay for Wnt activity is described as follows. Reporter cell lines can be generated by stably transducing cancer cell lines (e.g., colon cancer) or primary cells (e.g., IEC-6 intestinal cells) with a lentiviral construct that includes a Wnt-responsive promoter driving expression of the firefly luciferase gene.
SW480 colon carcinoma cells were transduced with a lentiviral vector expressing luciferase with a human Sp5 promoter consisting of a sequence of eight TCF/LEF binding sites. SW480 cells stably expressing the Sp5-Luc reporter gene and a hygromycin resistance gene were selected by treatment with 150 μg/mL of hygromycin for 7 days. These stably transduced SW480 cells were expanded in cell culture and used for all further screening activities. […] For Sp5-Luc reporter gene assays, the cells were plated at 4,000 cells/well in 384-well plates with medium containing 1% fetal bovine serum and incubated overnight at 37° C. and 5% CO2. Following incubation, 20 μl of BrightGlo luminescence reagent (Promega) was added to each well of the 384-well assay plates. The plates were placed on an orbital shaker for 2 min and then luminescence was quantified using the Envision (Perkin Elmer) plate reader. Readings were normalized to DMSO only treated cells, and normalized activities were utilized for EC50 calculations using the dose-response log (inhibitor) vs. response-variable slope (four parameters) nonlinear regression feature available in GraphPad Prism 5.0 (or Dotmatics).
On the technique in general: In a reporter assay the amount or activity of a reporter protein is the signal.

For experiment [3], the system named is primary human fibroblasts derived from IPF patients (LL29 cells) treated with TGF-β1. Nature of the experiment: Inhibition of the fibrotic process: αSMA staining in TGF-β1 treated LL29 fibroblasts. The note with it: Fibroblast; for EC50: 96 h, % αSMA positive LL29 cells, TGF-β1 20 ng/mL, 4 days; for inhibition at 10 µM: read-out: percent inhibition at 10 μM. The procedure: Representative compounds were screened using primary human fibroblasts (derived from IPF patients) treated with TGF-β1 to determine their ability to inhibit the fibrotic process.
LL29 cells are plated at 1,500 cells/well in 80 μL/well F12 medium supplemented with 1% Fetal Bovine Serum. […] Wells treated with TGF-β1 and containing DMSO were used as controls. […] Following incubation for 4 days, SYTOX green nucleic acid stain (Life Technologies [Thermo Fisher Scientific]) was added to the wells at a final concentration of 1 μM and incubated at room temperature for 30 min.

The subject of another experiment is SW480 colon cancer cells. Nature of the experiment: Cell viability assay (CellTiter-Blue) in SW480 colon cancer cells. The settings on record: Homo sapiens; for EC50: 96 h, SW480 cell viability, four days; for inhibition at 10 µM: SW480, read-out: percent inhibition at 10 μM. The procedure: Representative compounds were screened using the following assay procedure to assess the effect on cell viability as described below.
Approximately 2×10^3 SW480 colon cancer cells were seeded into each well and allowed to incubate in the presence or absence of compound for four days at 37° C./5% CO2. Eight replicates of DMSO-treated cells served as controls and cells treated with compound were performed in duplicate.
After incubation, 20 μL of CellTiter-Blue (Promega) was added to each well allowed to incubate for approximately 3 hours. This reagent was a buffered solution which contains resazurin, metabolically active cells were able to reduce rezarurin (blue) into resorufin (pink) which was highly fluorescent. This measured fluorescence was used as a readout for cell viability.

Structures are written as SMILES.

Consider `CN(C)CCOc1cncc(-c2cc3c(-c4cc5c(-c6ccc(F)cc6)nccc5[nH]4)n[nH]c3cn2)c1` [Compound 531, 2-((5-(3-(4-(4-Fluorophenyl)-1H-pyrrolo[3,2-c]pyridin-2-yl)-1H-pyrazolo[3,4-c]pyridin-5-yl)pyridin-3-yl)oxy)-N,N-dimethylethan-1-amine], for which the EC50 worked out at 3500 nM in the experiment with IL-6 (THP-1 cells); 900 nM in experiment [1]; 3200 nM in experiment [2]; 920 nM in experiment [3]; 3590 nM in the experiment on SW480 colon cancer cells. In addition, in experiment [1], the Emax was 113%.
`CCC(=O)Nc1cncc(-c2cc3c(-c4cc5c(-c6cccc(F)c6)nccc5[nH]4)n[nH]c3cn2)c1` [Compound 1, N-(5-(3-(4-(3-Fluorophenyl)-1H-pyrrolo[3,2-c]pyridin-2-yl)-1H-pyrazolo[3,4-c]pyridin-5-yl)pyridin-3-yl)propionamide]: the EC50 in the experiment with IL-6 (THP-1 cells) amounted to 733 nM; in experiment [1] it was 30 nM; in experiment [2] it was 305 nM; in experiment [3], 235 nM; with SW480 colon cancer cells, 931 nM. Further, in experiment [1], the Emax was found to be 51%.
Consider `Fc1cccc(-c2nccc3[nH]c(-c4n[nH]c5cnc(-c6cccnc6)cc45)cc23)c1` [Compound 4, 3-(4-(3-Fluorophenyl)-1H-pyrrolo[3,2-c]pyridin-2-yl)-5-(pyridin-3-yl)-1H-pyrazolo[3,4-c]pyridine], for which the EC50 turned out to be 649 nM in the experiment on IL-6 (THP-1 cells); 300 nM in experiment [1]; 500 nM in experiment [2]; 20 nM in experiment [3]; 867 nM in the experiment with SW480 colon cancer cells. Besides, the Emax in experiment [1] was 114%.
For the molecule `CCNCc1cncc(-c2cc3c(-c4cc5c(N6CCCCC6)nccc5[nH]4)n[nH]c3cn2)c1` [Compound 174, N-((5-(3-(4-(Piperidin-1-yl)-1H-pyrrolo[3,2-c]pyridin-2-yl)-1H-pyrazolo[3,4-c]pyridin-5-yl)pyridin-3-yl)methyl)ethanamine], the EC50 with IL-6 (THP-1 cells) was found to be 1020 nM; in experiment [1], 10 nM; in experiment [2], 2770 nM; in experiment [3] it was 1200 nM; with SW480 colon cancer cells, 2370 nM. The Emax in experiment [1] amounted to 183%.
By inhibition is commonly meant the drop in the measured response relative to a control, in per cent. For the molecule `CC(C)C(=O)Nc1cncc(-c2cc3c(-c4cc5c(-c6cc(F)cc(CNS(C)(=O)=O)c6)nccc5[nH]4)n[nH]c3cn2)c1` [Compound 485, N-(5-(3-(4-(3-Fluoro-5-(methylsulfonamidomethyl)phenyl)-1H-pyrrolo[3,2-c]pyridin-2-yl)-1H-pyrazolo[3,4-c]pyridin-5-yl)pyridin-3-yl)isobutyramide], the inhibition at 10 µM in the experiment with IL-6 (THP-1 cells) is 47.8%; in experiment [2] it was 43.9%; in experiment [3], 0%; in the experiment on SW480 colon cancer cells it was 10.5%. The EC50 with IL-6 (THP-1 cells) is above 10000 nM; in experiment [1], 30 nM; in experiment [2] it was above 10000 nM; in experiment [3], above 10000 nM; with SW480 colon cancer cells it was above 10000 nM. Also, in experiment [1], the Emax amounted to 80%.
As for `O=C(Nc1cncc(-c2cc3c(-c4cc5c(-c6ccc(F)cc6)nccc5[nH]4)n[nH]c3cn2)c1)C1CC1` [Compound 48, N-(5-(3-(4-(4-Fluorophenyl)-1H-pyrrolo[3,2-c]pyridin-2-yl)-1H-pyrazolo[3,4-c]pyridin-5-yl)pyridin-3-yl)cyclopropanecarboxamide], the EC50 with IL-6 (THP-1 cells) is 1050 nM; in experiment [1], 30 nM; in experiment [2], 844 nM; in experiment [3], 404 nM; in the experiment with SW480 colon cancer cells, 666 nM. Moreover, in experiment [1], the Emax turned out to be 96%.
For the molecule `CCCCC(=O)Nc1cncc(-c2cc3c(-c4cc5c(-c6cc(F)cc(CNS(C)(=O)=O)c6)nccc5[nH]4)n[nH]c3cn2)c1` [Compound 495, N-(5-(3-(4-(3-Fluoro-5-(methylsulfonamidomethyl)phenyl)-1H-pyrrolo[3,2-c]pyridin-2-yl)-1H-pyrazolo[3,4-c]pyridin-5-yl)pyridin-3-yl)pentanamide], the inhibition at 10 µM is 34.8% in the experiment on IL-6 (THP-1 cells), 29.6% in experiment [2], 3.3% in experiment [3] and 0% with SW480 colon cancer cells. In addition, the EC50 with IL-6 (THP-1 cells) is above 10000 nM; in experiment [1] it was 10 nM; in experiment [2], above 10000 nM; in experiment [3], above 10000 nM; in the experiment with SW480 colon cancer cells, above 10000 nM. The Emax in experiment [1] is 111%.
For the molecule `CC(C)CC(=O)Nc1cncc(-c2cc3c(-c4cc5c(-c6cccs6)nccc5[nH]4)n[nH]c3cn2)c1` [Compound 338, 3-Methyl-N-(5-(3-(4-(thiophen-2-yl)-1H-pyrrolo[3,2-c]pyridin-2-yl)-1H-pyrazolo[3,4-c]pyridin-5-yl)pyridin-3-yl)butanamide], the EC50 in the experiment on IL-6 (THP-1 cells) was determined as 449 nM; in experiment [1], 10 nM; in experiment [2], 572 nM; in experiment [3] it was 155 nM; in the experiment with SW480 colon cancer cells, 440 nM. Further, in experiment [1], the Emax turned out to be 81%.
Turning to `Nc1cncc(-c2cc3c(-c4cc5c(-c6ccccc6F)nccc5[nH]4)n[nH]c3cn2)c1` [Compound 59, 5-(3-(4-(2-Fluorophenyl)-1H-pyrrolo[3,2-c]pyridin-2-yl)-1H-pyrazolo[3,4-c]pyridin-5-yl)pyridin-3-amine], the EC50 in the experiment on IL-6 (THP-1 cells) is 119 nM; in experiment [1], 10 nM; in experiment [2], 224 nM; in experiment [3], 5400 nM; with SW480 colon cancer cells it was 940 nM. The Emax in experiment [1] was found to be 117%.
Consider `c1ccc(CNCc2cncc(-c3cc4c(-c5cc6c(-c7ccncc7)nccc6[nH]5)n[nH]c4cn3)c2)cc1` [Compound 136, N-Benzyl-1-(5-(3-(4-(pyridin-4-yl)-1H-pyrrolo[3,2-c]pyridin-2-yl)-1H-pyrazolo[3,4-c]pyridin-5-yl)pyridin-3-yl)methanamine], for which the inhibition at 10 µM came out at 0% in the experiment with IL-6 (THP-1 cells), 50.4% in experiment [2] and 23% in the experiment on SW480 colon cancer cells. The EC50 in the experiment on IL-6 (THP-1 cells) was above 10000 nM; in experiment [1], 900 nM; in experiment [2], above 10000 nM; in experiment [3] it was 560 nM; in the experiment on SW480 colon cancer cells it was above 10000 nM. Further, in experiment [1], the Emax was found to be 67%.
